Results taken from the RepoRT retention time repository.

Test: HILIC, Waters Atlantis Premier BEH Z-HILIC, 100 × 2.1 mm, 1.7 µm, 40 °C, 0.15 mL/min, estimated dead time 1.5 min; A: water + 20 mM ammonium carbonate + 5 µM medronic acid; B: 10% water + 90% acetonitrile + 2 mM ammonium carbonate + 0.5 µM medronic acid; gradient (min/%B) 0/95 18/55 18.1/20 21.5/20 22/95 23.5/95 25.5/95
Conditions: stereoisomer not certain

**Q.** For `CC(C)CC(N)C(=O)O` (configuration not stated) [Leucine], which LC retention time is on record?
**A.** 6.03 min

**Q.** Which LC retention time does the source give for `NC(=O)C1=CN(C2OC(COP(=O)(O)OP(=O)(O)OCC3OC(n4cnc5c(N)ncnc54)C(O)C3O)C(O)C2O)C=CC1` (configuration not stated) [NADH] here?
**A.** 8.54 min

**Q.** With `O=P(O)(O)OCC(O)CO` (configuration not stated) [Glycerol-3-phosphate] as the compound, how does the LC retention time read?
**A.** 10.2 min

**Q.** Which LC retention time does the source give for `O=C(CO)C(O)C(O)C(O)COP(=O)(O)O` (configuration not stated) [Fructose 6-phosphate] here?
**A.** 11.3 min

**Q.** With `NC(=O)c1ccc[n+](C2OC(COP(=O)(O)OP(=O)(O)OCC3OC(n4cnc5c(N)ncnc54)C(O)C3O)C(O)C2O)c1` (configuration not stated) [NAD] as the compound, how does the LC retention time read?
**A.** 10.2 min

**Q.** For `Nc1nc2c(ncn2C2OC(COP(=O)(O)OP(=O)(O)OP(=O)(O)O)C(O)C2O)c(=O)[nH]1` (configuration not stated) [GTP], which LC retention time is on record?
**A.** 15.7 min

**Q.** Which LC retention time does the source give for `Nc1ncnc2c1ncn2C1OC(COP(=O)(O)O)C(O)C1O` (configuration not stated) [AMP] here?
**A.** 9.36 min

**Q.** Which LC retention time does the source give for `OCC1OC(O)C(O)C(O)C1O` (configuration not stated) [Hexose] here?
**A.** 7.63 min

**Q.** With `C[N+](C)(C)CC(O)CC(=O)[O-]` (configuration not stated) [Carnitine] as the compound, how does the LC retention time read?
**A.** 9.85 min

**Q.** With `CCC(C)C(N)C(=O)O` (configuration not stated) [Isoleucine] as the compound, how does the LC retention time read?
**A.** 6.42 min

**Q.** Which LC retention time does the source give for `Nc1ncnc2c1ncn2C1OC(COP(=O)(O)OP(=O)(O)O)C(O)C1O` (configuration not stated) [ADP] here?
**A.** 11.3 min

**Q.** For `NCCCCC(N)C(=O)O` (configuration not stated) [Lysine], which LC retention time is on record?
**A.** 19.5 min

**Q.** With `NC(=O)CCC(N)C(=O)O` (configuration not stated) [Glutamine] as the compound, how does the LC retention time read?
**A.** 10.3 min

**Q.** With `NC(=O)c1ccc[n+](C2OC(COP(=O)(O)OP(=O)(O)OCC3OC(n4cnc5c(N)ncnc54)C(OP(=O)(O)O)C3O)C(O)C2O)c1` (configuration not stated) [NADP] as the compound, how does the LC retention time read?
**A.** 13.2 min

**Q.** With `NC(=O)C1=CN(C2OC(COP(=O)(O)OP(=O)(O)OCC3OC(n4cnc5c(N)ncnc54)C(OP(=O)(O)O)C3O)C(O)C2O)C=CC1` (configuration not stated) [NADPH] as the compound, how does the LC retention time read?
**A.** 13.7 min

**Q.** Which LC retention time does the source give for `NC(CCC(=O)O)C(=O)O` (configuration not stated) [Glutamic acid] here?
**A.** 9.67 min

**Q.** For `CC(C)(COP(=O)(O)OP(=O)(O)OCC1OC(n2cnc3c(N)ncnc32)C(O)C1OP(=O)(O)O)C(O)C(=O)NCCC(=O)NCCS` (configuration not stated) [CoenzymeA], which LC retention time is on record?
**A.** 11.8 min

**Q.** With `O=P(O)(O)OCC1OC(O)(COP(=O)(O)O)C(O)C1O` (configuration not stated) [Fructose-1,6-bisphosphate] as the compound, how does the LC retention time read?
**A.** 15.5 min

**Q.** With `CC(=O)SCCNC(=O)CCNC(=O)C(O)C(C)(C)COP(=O)(O)OP(=O)(O)OCC1OC(n2cnc3c(N)ncnc32)C(O)C1OP(=O)(O)O` (configuration not stated) [Acetyl-CoA] as the compound, how does the LC retention time read?
**A.** 10.1 min

**Q.** Which LC retention time does the source give for `O=C(O)CC(C(=O)O)C(O)C(=O)O` (configuration not stated) [Isocitric acid] here?
**A.** 13.5 min

**Q.** For `Cc1cc2nc3c(=O)[nH]c(=O)nc-3n(CC(O)C(O)C(O)COP(=O)(O)OP(=O)(O)OCC3OC(n4cnc5c(N)ncnc54)C(O)C3O)c2cc1C` (configuration not stated) [FAD], which LC retention time is on record?
**A.** 7.24 min

**Q.** For `Nc1ncnc2c1ncn2C1OC(CO)C(O)C1O` (configuration not stated) [Adenosine], which LC retention time is on record?
**A.** 4.11 min

**Q.** For `O=C(O)CC(O)(CC(=O)O)C(=O)O` [Citric acid], which LC retention time is on record?
**A.** 13.8 min

**Q.** Which LC retention time does the source give for `O=P(O)(O)OCC1OC(O)C(O)C(O)C1O` (configuration not stated) [Glucose-6-phosphate] here?
**A.** 12.3 min

**Q.** With `O=C(O)CCCCC1SCC2NC(=O)NC21` (configuration not stated) [Biotin] as the compound, how does the LC retention time read?
**A.** 4.5 min

**Q.** For `NC(N)=NCCCC(N)C(=O)O` (configuration not stated) [Arginine], which LC retention time is on record?
**A.** 19.3 min

**Q.** Which LC retention time does the source give for `C=C(OP(=O)(O)O)C(=O)O` [PEP] here?
**A.** 13.3 min

**Q.** With `O=C(CO)COP(=O)(O)O` [Triose phosphate] as the compound, how does the LC retention time read?
**A.** 10.2 min

**Q.** For `Nc1ncnc2c1ncn2C1OC(COP(=O)(O)OP(=O)(O)OP(=O)(O)O)C(O)C1O` (configuration not stated) [ATP], which LC retention time is on record?
**A.** 13.2 min

**Q.** For `CCC(=O)OC(CC(=O)[O-])C[N+](C)(C)C` (configuration not stated) [carnitine-C3], which LC retention time is on record?
**A.** 6.52 min

**Q.** With `CC(=O)NC1C(OP(=O)(O)OP(=O)(O)OCC2OC(n3ccc(=O)[nH]c3=O)C(O)C2O)OC(CO)C(O)C1O` (configuration not stated) [UDP-GlcNAc] as the compound, how does the LC retention time read?
**A.** 9.78 min

**Q.** Which LC retention time does the source give for `O=C(O)CCC(=O)O` [Succinic Acid] here?
**A.** 9.51 min

**Q.** With `O=C1CC(C(=O)O)NC(=O)N1` (configuration not stated) [dihydroorotic acid] as the compound, how does the LC retention time read?
**A.** 4.59 min

**Q.** Which LC retention time does the source give for `CC(O)C(=O)O` (configuration not stated) [Lactic Acid] here?
**A.** 3.43 min

**Q.** With `O=C(O)CCC(O)C(=O)O` (configuration not stated) [2-hydroxy glutaric acid] as the compound, how does the LC retention time read?
**A.** 9.45 min

**Q.** With `O=C(O)C(CO)OP(=O)(O)O` (configuration not stated) [Phosphoglyceric acid A] as the compound, how does the LC retention time read?
**A.** 12.4 min

**Q.** With `O=C(O)CCC(=O)C(=O)O` [2-Oxoglutaric acid] as the compound, how does the LC retention time read?
**A.** 8.94 min
